According to patent publication US10508088B2, “Methods using HDAC11 inhibitors” (FORMA Therapeutics, Inc., priority 2016, dated 2019):

molecular target: Recombinant N-terminal GST tag full-length human HDAC11 (Homo sapiens (Human), UniProt Q96DB2); test: Probe binding HDAC11 assay, time resolved fluorescence (TRF); settings: read-out: HDAC11 IC50 Range
Procedure: The probe binding HDAC11 assay was performed using a time resolved fluorescence (TRF) assay format. Recombinant N-terminal GST tag full-length human HDAC11 was expressed and purified from baculovirus in Sf9 insect cells (SignalChem, # H93-30G-1000). Each assay was performed in 1536 black well microplates (Corning, #3936) in a final volume of 8 μL in assay buffer containing 50 mM HEPES (pH 7.5), 50 mM KCl, 50 mM NaCl, 0.5 mM GSH (L-Glutathione reduced, Sigma #G4251), 0.03% BGG (0.22 μM filtered, Sigma, #G7516-25G), and 0.01% Triton X-100 (Sigma, #T9284-10L). 100 nL of 10-point, 3-fold serial dilution in DMSO was pre-dispensed into respective wells of 1536 assay plates for a final test concentration range of 25 μM to 1.3 nM respectively. The final concentration in the assay of HDAC11 and probe (a fluorescein labeled HDAC 11 inhibitor) was 2.5 nM and 20 nM respectively. 4 μL of 2× probe and 2× anti-GST Terbium (Cisbio, #61GSTXLB) was added to assay plates followed by 4 μL of 2×HDAC11. Plates were incubated for 16 hours at room temperature before time resolved fluorescence was read on the Envision (Excitation at 340 nm, and Emission at 485 nm and 535 nm, Perkin Elmer).
Data from HDAC11 Assays were reported as percent inhibition (inh) compared with control wells based on the following equation: % inh=1−((FLU−AveLow)/(AveHigh−AveLow)) where FLU=measured time resolved fluorescence. AveLow=average time resolved fluorescence of no enzyme control (n=32). AveHigh=average time resolved fluorescence of DMSO control (n=32). IC50 values were determined by curve fitting of the standard 4 parameter logistic fitting algorithm included in the Activity Base software package: IDBS XE Designer Model205. Data is fitted using the Levenburg Marquardt algorithm.

Recombinant N-terminal GST tag full-length human HDAC11, sequence (Q96DB2 whole entry): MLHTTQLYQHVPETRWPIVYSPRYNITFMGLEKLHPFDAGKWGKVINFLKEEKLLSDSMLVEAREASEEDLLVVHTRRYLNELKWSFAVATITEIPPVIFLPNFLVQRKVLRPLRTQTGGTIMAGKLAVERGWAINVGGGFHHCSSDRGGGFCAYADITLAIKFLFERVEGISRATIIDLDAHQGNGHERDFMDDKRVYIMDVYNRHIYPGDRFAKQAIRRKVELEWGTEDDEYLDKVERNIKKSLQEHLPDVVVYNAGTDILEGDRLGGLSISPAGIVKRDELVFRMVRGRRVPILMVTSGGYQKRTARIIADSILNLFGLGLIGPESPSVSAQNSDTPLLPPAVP

Row | SMILES | IC50 [nM]
1 | COCCn1c(Nc2cccc(C(=O)NO)c2)nc2cc(C(F)(F)F)c(C#N)cc21 [Example 18-1, 3-(6-cyano-1-(2-methoxyethyl)-5-(trifluoromethyl)-1H-benzo[d]imidazol-2-ylamino)-N-hydroxybenzamide] | < 500
2 | CN(C)c1ccc(-c2cc3[nH]c(Nc4cccc(C(=O)NO)c4)nc3cc2C(F)(F)F)cn1 [Example 36-12, 3-((6-(6-(dimethylamino)pyridin-3-yl)-5-(trifluoromethyl)-1H-benzo[d]imidazol-2-yl)amino)-N-hydroxybenzamide] | < 500
3 | CS(=O)(=O)c1ccc2[nH]c(Nc3cccc(C(=O)NO)c3)nc2c1 [Example 33-23, N-hydroxy-3-((5-(methylsulfonyl)-1H-benzo[d]imidazol-2-yl)amino)benzamide] | > 1000
4 | CN(c1cccc(C(=O)NO)c1)c1nc2cc(C(F)(F)F)c(-c3ccccc3)cc2n1C [Example 34-3, N-hydroxy-3-(methyl(1-methyl-6-phenyl-5-(trifluoromethyl)-1H-benzo[d]imidazol-2-yl)amino)benzamide] | 500 to 1000
5 | CN(c1cccc(C(=O)NOC(=O)NCc2ccccc2)c1)c1nc2cc(C#N)c(C(F)(F)F)cc2[nH]1 [Example 37-2, N-((benzylcarbamoyl)oxy)-3-((5-cyano-6-(trifluoromethyl)-1H-benzo[d]imidazol-2-yl)(methyl)amino)benzamide] | > 1000
6 | O=C(NO)c1cccc(Nc2nc3ccccc3[nH]2)c1 [Example 8-1, 3-(1H-benzo[d]imidazol-2-ylamino)-N-hydroxybenzamide] | > 1000
7 | O=C(NO)c1cccc(Nc2nc3cc4c(cc3[nH]2)OCCO4)c1 [Example 33-9, 3-((6,7-dihydro-1H-[1,4]dioxino[2′,3′:4,5]benzo[1,2-d]imidazol-2-yl)amino)-N-hydroxybenzamide] | 500 to 1000
8 | CN(c1cccc(C(=O)NO)c1)c1nc2cc(-c3cccnc3)c(C(F)(F)F)cc2n1C [Example 34-1, N-hydroxy-3-(methyl(1-methyl-5-(pyridin-3-yl)-6-(trifluoromethyl)-1H-benzo[d]imidazol-2-yl)amino)benzamide] | > 1000
9 | O=C(NO)c1ccnc(Nc2nc3cc(Cl)c(Cl)cc3o2)c1 [Example 4-7, 2-((5,6-dichlorobenzo[d]oxazol-2-yl)amino)-N-hydroxyisonicotinamide] | < 500
10 | Cn1ncc2ccc(-c3cc4[nH]c(Nc5cccc(C(=O)NO)c5)nc4cc3C(F)(F)F)cc21 [Example 36-17, N-hydroxy-3-((6-(1-methyl-1H-indazol-6-yl)-5-(trifluoromethyl)-1H-benzo[d]imidazol-2-yl)amino)benzamide] | < 500
11 | CC(C)n1c(Nc2cccc(C(=O)NO)c2)nc2cc(Cl)c(Cl)cc21 [Example 17-1, 3-(5,6-dichloro-1-isopropyl-1H-benzo[d]imidazol-2-ylamino)-N-hydroxybenzamide] | < 500
12 | O=C(NO)c1cccc(Nc2nc3cc(Cl)c(C(F)(F)F)cc3[nH]2)c1 [Example 33-6, 3-((5-chloro-6-(trifluoromethyl)-1H-benzo[d]imidazol-2-yl)amino)-N-hydroxybenzamide] | < 500
13 | O=C(NO)c1cccc(Nc2nc3cc(C(F)(F)F)c(-c4ccccc4)cc3o2)c1 [Example 3-1, N-hydroxy-3-(6-phenyl-5-(trifluoromethyl)benzo[d]oxazol-2-ylamino)benzamide] | < 500
14 | Cn1c(Nc2cccc(C(=O)NO)c2)nc2cc(C(F)(F)F)c(-c3cccnc3)cc21 [Example 35-2, N-hydroxy-3-((1-methyl-6-(pyridin-3-yl)-5-(trifluoromethyl)-1H-benzo[d]imidazol-2-yl)amino)benzamide] | < 500
15 | O=C(NO)c1cccc(Nc2nc3cc(C(F)(F)F)c(-c4ccc5c(c4)OCCO5)cc3[nH]2)c1 [Example 36-9, 3-((6-(2,3-dihydrobenzo[b][1,4]dioxin-6-yl)-5-(trifluoromethyl)-1H-benzo[d]imidazol-2-yl)amino)-N-hydroxybenzamide] | < 500
16 | O=C(NO)c1cccc(Nc2nc3ncc(C(F)(F)F)cc3o2)c1 [Example 32-2, N-hydroxy-3-((6-(trifluoromethyl)oxazolo[4,5-b]pyridin-2-yl)amino)benzamide] | < 500
17 | Cc1cc2nc(Nc3cccc(C(=O)NO)c3)[nH]c2cc1C [Example 23-4, 3-((5,6-dimethyl-1H-benzo[d]imidazol-2-yl)amino)-N-hydroxybenzamide] | < 500
18 | O=C(NO)c1cccc(Nc2nc3cc(C(F)(F)F)c(-c4ccoc4)cc3[nH]2)c1 [Example 36-20, 3-((6-(furan-3-yl)-5-(trifluoromethyl)-1H-benzo[d]imidazol-2-yl)amino)-N-hydroxybenzamide] | < 500

Row | SMILES | IC50 [nM]
19 | O=C(NO)c1ccc(F)c(Nc2nc3cc(Cl)c(Cl)cc3o2)c1 [Example 4-3, 3-((5,6-dichlorobenzo[d]oxazol-2-yl)amino)-4-fluoro-N-hydroxybenzamide] | < 500
20 | COCCn1c(Nc2cccc(C(=O)NO)c2)nc2ccccc21 [Example 23-1, N-hydroxy-3-((1-(2-methoxyethyl)-1H-benzo[d]imidazol-2-yl)amino)benzamide] | > 1000
21 | O=C(NO)c1cccc(Nc2nc3cc(-c4ccncc4)c(C(F)(F)F)cc3[nH]2)c1 [Example 36-3, N-hydroxy-3-((5-(pyridin-4-yl)-6-(trifluoromethyl)-1H-benzo[d]imidazol-2-yl)amino)benzamide] | < 500
22 | COCCn1c(Nc2cccc(C(=O)NO)c2)nc2cc(C#N)c(C(F)(F)F)cc21 [Example 19-1, 3-(5-cyano-1-(2-methoxyethyl)-6-(trifluoromethyl)-1H-benzo[d]imidazol-2-ylamino)-N-hydroxybenzamide] | < 500
23 | Cc1cc2[nH]c(Nc3cccc(C(=O)NO)c3)nc2cc1Cl [Example 33-2, 3-((5-chloro-6-methyl-1H-benzo[d]imidazol-2-yl)amino)-N-hydroxybenzamide] | < 500
24 | N#Cc1cc2nc(Cc3cccc(C(=O)NO)c3)[nH]c2cc1C(F)(F)F [Example 27-1, 3-((5-cyano-6-(trifluoromethyl)-1H-benzo[d]imidazol-2-yl)methyl)-N-hydroxybenzamide] | < 500
25 | COCc1ccc(-c2cc3[nH]c(Nc4cccc(C(=O)NO)c4)nc3cc2C(F)(F)F)cc1 [Example 36-7, N-hydroxy-3-((6-(4-(methoxymethyl)phenyl)-5-(trifluoromethyl)-1H-benzo[d]imidazol-2-yl)amino)benzamide] | < 500
26 | O=C(NO)c1cccc(Nc2nc3nccnc3[nH]2)c1 [Example 29-1, 3-((1H-imidazo[4,5-b]pyrazin-2-yl)amino)-N-hydroxybenzamide] | > 1000
27 | CSc1ccc(-c2cc3[nH]c(Nc4cccc(C(=O)NO)c4)nc3cc2C(F)(F)F)cc1 [Example 36-5, N-hydroxy-3-((6-(4-(methylthio)phenyl)-5-(trifluoromethyl)-1H-benzo[d]imidazol-2-yl)amino)benzamide] | < 500
28 | COCCn1c(Nc2cccc(C(=O)NO)c2)nc2c(OC)cccc21 [Example 24-1, N-hydroxy-3-((4-methoxy-1-(2-methoxyethyl)-1H-benzo[d]imidazol-2-yl)amino)benzamide] | > 1000
29 | O=C(NO)c1cccc(Nc2nc3cc(Cl)c([N+](=O)[O-])cc3[nH]2)c1 [Example 33-15, 3-((5-chloro-6-nitro-1H-benzo[d]imidazol-2-yl)amino)-N-hydroxybenzamide] | < 500
30 | O=C(NO)c1cccc(Nc2nc3cc(C(F)(F)F)c(-c4cccc(C(=O)N5CCOCC5)c4)cc3[nH]2)c1 [Example 36-14, N-hydroxy-3-((6-(3-(morpholine-4-carbonyl)phenyl)-5-(trifluoromethyl)-1H-benzo[d]imidazol-2-yl)amino)benzamide] | < 500
31 | Cn1c(Nc2cccc(C(=O)NO)c2)nc2cc(Cl)c(Cl)cc21 [Example 13-1, 3-(5,6-dichloro-1-methyl-1H-benzo[d]imidazol-2-ylamino)-N-hydroxybenzamide] | < 500
32 | O=C(NO)c1cccc(Nc2nc3cc(Cl)c(Cl)cc3o2)c1 [Example 1-1, 3-(5,6-dichlorobenzo[d]oxazol-2-ylamino)-N-hydroxybenzamide] | < 500
33 | COCCn1c(Nc2cccc(C(=O)NO)c2)nc2cc(-c3ccccc3)c(C(F)(F)F)cc21 [Example 20-2, N-hydroxy-3-((1-(2-methoxyethyl)-5-phenyl-6-(trifluoromethyl)-1H-benzo[d]imidazol-2-yl)amino)benzamide] | < 500
34 | O=C(NO)c1cccc(Nc2nc3cc(F)c(F)cc3[nH]2)c1 [Example 33-3, 3-((5,6-difluoro-1H-benzo[d]imidazol-2-yl)amino)-N-hydroxybenzamide] | 500 to 1000
35 | O=C(NO)c1cccc(Nc2nc3cc(Cl)c(Cl)cc3o2)c1F [Example 4-2, 3-((5,6-dichlorobenzo[d]oxazol-2-yl)amino)-2-fluoro-N-hydroxybenzamide] | < 500
